Source: patent US11040028B2, “Penicinotam derivative, preparation method and use thereof” (OCEAN UNIVERSITY OF CHINA, priority 2017, dated 2021)
Where two headings read alike, the source gives them in different places.

Tests used:
Format in all cases: cell-based
[1] = test system: mouse macrophages (RAW264.7); test: Lipopolysaccharide-induced NO secretion in macrophages (Griess); settings: RAW264.7, LPS 1 μg/ml, a/b isomers given as first/second symbol, read-out: IC50 (μM), inhibition of lipopolysaccharide-induced NO secretion in macrophages
In short: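 Percent inhibition of NO release was measured by Griess absorbance at 548 nm in supernatants. Cells were mouse RAW264.7 macrophages in 10% FBS DMEM, treated with graded compound concentrations and activated by LPS (1 μg/ml) for 24 h.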

[2] = test system: human dermal fibroblasts CCC-ESF-1; test: Anti-fibrosis activity test: inhibition of proliferation of human dermal fibroblasts CCC-ESF-1 (CCK-8); settings: Fibroblast
In short: (§1)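 Proliferation read by CCK-8 (2 h, A450) after 48 h compound treatment of cells plated at 2×10^4 cells/mL and allowed 24 h attachment, triplicate per concentration. Inhibition rate derived from absorbance relative to untreated blank, with IC50 fitted; pirfenidone as positive control.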

[3] = test system: NF-κB; test: Immunological activity test: inhibition of NF-κB activity; settings: initial concentration of 30 μM; a/b isomers given as first/second symbol; read-out: IC50 (μM), inhibitory activity against NF-κB
In short: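 IC50 values were derived after initial screening of compounds at 30 μM for NF-κB inhibitory activity, with parthenolide serving as the positive control.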

[4] = test system: BHK-21 cells; test: Anti-fibrosis activity test: inhibition of BHK-21 cell proliferation (CCK-8); settings: Mesocricetus auratus, BHK-21, 48 h
In short: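 BHK-21 cells seeded at 2×10^4 cells/mL, allowed to adhere 24 h at 37° C, 5% CO2, then exposed to compounds at graded concentrations in triplicate for 48 h. CCK-8 added for 2 h and absorbance read at 450 nm; inhibition rate taken as (1−Ai/Ao)×100% and IC50 fitted.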

[5] = test system: human lung fibroblasts HFL1; test: Anti-fibrosis activity test: inhibition of proliferation of human lung fibroblasts HFL1 (CCK-8); settings: Homo sapiens, HFL1, 48 h
In short: as §1

[6] = test system: human fibrosarcoma cells HT-1080; test: Anti-fibrosis activity test: inhibition of proliferation of human fibrosarcoma cells HT-1080 (CCK-8); settings: Homo sapiens, HT-1080, 48 h
In short: as §1

[7] = test system: human embryonic lung fibroblast IMR-90; test: Anti-fibrosis activity test: inhibition of proliferation of human embryonic lung fibroblast IMR-90 (CCK-8)
In short: as §1

[8] = test system: human hepatic stellate cells LX-2; test: Anti-fibrosis activity test: inhibition of proliferation of human hepatic stellate cells LX-2 (CCK-8); settings: Homo sapiens, 48 h
In short: as §1

[9] = test system: cardiac fibroblast RAT-iCell-C002; test: Anti-fibrosis activity test: inhibition of proliferation of cardiac fibroblast RAT-iCell-C002 (CCK-8); settings: Cardiac fibroblast, 48 h
In short: as §1

[10] = Homo sapiens, CCC-ESF-1 cells, 48 h, CCK-8
[11] = Homo sapiens, IMR-90 cells, 48 h, CCK-8
[12] = human dermal fibroblasts CCC-ESF-1, CCK-8, 48 hours
[13] = CCK-8, 48 hours after administration
[14] = human lung fibroblasts HFL1, CCK-8, 48 hours
[15] = human fibrosarcoma cells HT-1080, CCK-8, 48 hours
[16] = human embryonic lung fibroblast IMR-90, CCK-8, 48 hours
[17] = human hepatic stellate cells LX-2, CCK-8, 48 hours
[18] = cardiac fibroblast RAT-iCell-C002, CCK-8, 48 hours

IC50 ([1]; Mus musculus, RAW264.7, 24 h) [µM] | IC50 [3] [µM] | IC50 ([6]; HT-1080 cells, 48 h, CCK-8) [mM] | IC50 [6, 15] [mM] | IC50 ([1]; 24 hours) [µM] | SMILES | IC50 [2, 10] [mM] | IC50 ([4]; 48 h, CCK-8) [mM] | IC50 ([5]; HFL1 cells, 48 h, CCK-8) [mM] | IC50 [7, 11] [mM] | IC50 ([8]; LX-2, 48 h, LX-2 cells, CCK-8) [mM] | IC50 ([9]; RAT-iCell-C002 cells, CCK-8) [mM] | IC50 [2, 12] [mM] | IC50 [4, 13] [mM] | IC50 [5, 14] [mM] | IC50 [7, 16] [mM] | IC50 [8, 17] [mM] | IC50 [9, 18] [mM]
1 to 10 | 1 to 10 | 0.05 to 5 |  |  | Cc1cc2n(c1)C(=O)c1nc3ccccc3c(O)c1-2 [Compound 798b, 11-hydroxy-2-methyl-5H-pyrrolizino[2,1-b]quinolin-5-one] | 0.05 to 5 | 0.05 to 5 | 0.05 to 5 | 0.05 to 5 | 0.05 to 5 | 0.05 to 5 |  |  |  |  |  | 
0.1 to 1 | 1 to 10 |  | 0.05 to 5 |  | Cc1cccc(Cn2c3c(c(=O)c4ccccc42)C(=O)n2cccc2-3)c1 [Compound 609a, 4-(3-Methylbenzyl)-9H-pyrrolizino[1,2-b]quinoline-9,10(4H)-dione] |  |  |  |  |  |  | 0.05 to 5 | 0.05 to 5 | 0.05 to 5 | 0.05 to 5 | 0.05 to 5 | 0.05 to 5
1 to 10 | 1 to 10 |  | 0.05 to 5 |  | O=C1c2c(nc3ccccc3c2OCc2cccc(Cl)c2F)-c2cccn21 [Compound 582b, 9-((3-chloro-2-fluorobenzyl)oxy)-10H-pyrrolizino[1,2-b]quinolin-10-one] |  |  |  |  |  |  | 0.05 to 5 | 0.05 to 5 | 0.05 to 5 | 0.05 to 5 | 0.05 to 5 | 0.05 to 5
10 to 50 | 10 to 50 |  | 0.05 to 5 |  | O=C1c2c(n(Cc3ccc(Cl)cc3)c3cc(F)ccc3c2=O)-c2cccn21 [Compound 496a, 4-(4-Chlorobenzyl)-6-fluoro-9H-pyrrolizino[1,2-b]quinoline-9,10(4H)-dione] |  |  |  |  |  |  | 0.05 to 5 | 0.05 to 5 | 0.05 to 5 | 0.05 to 5 | 0.05 to 5 | 0.05 to 5
0.1 to 1 | 1 to 10 | 0.05 to 5 |  |  | Cc1cc2[nH]c3c(c(=O)c2cc1C)C(=O)n1cccc1-3 [Compound 756a, 6,7-Dimethyl-9H-pyrrolizino[1,2-b]quinoline-9,10(4H)-dione] | 0.05 to 5 | 0.05 to 5 | 0.05 to 5 | 0.05 to 5 | 0.05 to 5 | 0.05 to 5 |  |  |  |  |  | 
0.1 to 1 | 1 to 10 |  | 0.05 to 5 |  | O=C1c2c(n(CCCCN3CCOCC3)c3ccccc3c2=O)-c2cccn21 [Compound 664a, 4-(4-Morpholinobutyl)-9H-pyrrolizino[1,2-b]quinoline-9,10(4H)-dione] |  |  |  |  |  |  | 0.05 to 5 | 0.05 to 5 | 0.05 to 5 | 0.05 to 5 | 0.05 to 5 | 0.05 to 5
1 to 10 | 10 to 50 |  | 0.05 to 5 |  | O=C1c2c(nc3cc(O)ccc3c2O)-c2cccn21 [Compound 524b, 6,9-dihydroxy-10H-pyrrolizino[1,2-b]quinolin-10-one] |  |  |  |  |  |  | 0.05 to 5 | 0.05 to 5 | 0.05 to 5 | 0.05 to 5 | 0.05 to 5 | 0.05 to 5
1 to 10 | 1 to 10 |  | 0.05 to 5 |  | O=C1c2c(nc3ccccc3c2OCc2ccc(F)cc2)-c2cccn21 [Compound 588b, 9-((4-fluorobenzyl)oxy)-10H-pyrrolizino[1,2-b]quinolin-10-one] |  |  |  |  |  |  | 0.05 to 5 | 0.05 to 5 | 0.05 to 5 | 0.05 to 5 | 0.05 to 5 | 0.05 to 5
10 to 50 | 1 to 10 |  | 0.05 to 5 |  | O=C1c2c(nc3ccccc3c2OCc2ccc(Cl)c(Cl)c2)-c2cccn21 [Compound 613b, 9-((3,4-dichlorobenzyl)oxy)-10H-pyrrolizino[1,2-b]quinolin-10-one] |  |  |  |  |  |  | 0.05 to 5 | 0.05 to 5 | 0.05 to 5 | 0.05 to 5 | 0.05 to 5 | 0.05 to 5
1 to 10 | 0.1 to 1 |  | 0.05 to 5 |  | COc1c2c(nc3ccc(F)cc13)-c1cccn1C2=O [Compound 157b, 7-fluoro-9-methoxy-10H-pyrrolizino[1,2-b]quinolin-10-one] |  |  |  |  |  |  | 0.05 to 5 | 0.05 to 5 | 0.05 to 5 | 0.05 to 5 | 0.05 to 5 | 0.05 to 5
1 to 10 | 1 to 10 |  | 0.05 to 5 |  | O=C(O)COc1c2c(nc3ccccc13)-c1cccn1C2=O [Compound 100b, 2-((10-oxo-10H-pyrrolizino[1,2-b]quinolin-9-yl)oxy)acetic acid] |  |  |  |  |  |  | 0.05 to 5 | 0.05 to 5 | 0.05 to 5 | 0.05 to 5 | 0.05 to 5 | 0.05 to 5
10 to 50 | 1 to 10 | 0.05 to 5 |  |  | O=C1c2c(c(=O)c3ccccc3n2CCCN2CCOCC2)-c2cccn21 [Compound 787a, 6-(3-Morpholinopropyl)-5H-pyrrolizino[2,1-b]quinoline-5,11(6H)-dione] | 0.05 to 5 | 0.05 to 5 | 0.05 to 5 | 0.05 to 5 | 0.05 to 5 | 0.05 to 5 |  |  |  |  |  | 
1 to 10 | 1 to 10 |  | 0.05 to 5 |  | Cc1ccccc1Cn1c2c(c(=O)c3ccccc31)C(=O)n1cccc1-2 [Compound 574a, 4-(2-Methylbenzyl)-9H-pyrrolizino[1,2-b]quinoline-9,10(4H)-dione] |  |  |  |  |  |  | 0.05 to 5 | 0.05 to 5 | 0.05 to 5 | 0.05 to 5 | 0.05 to 5 | 0.05 to 5
 | 1 to 10 |  |  | 1 to 10 | N#Cc1c(N2CCNCC2)ccc2c(OCc3ccc(F)cc3)c3c(nc12)-c1cccn1C3=O [Compound 486b, 9-((4-fluorobenzyl)oxy)-10-oxo-6-(piperazin-1-yl)-10H-pyrrolizino[1,2-b]quinoline-5-carbonitrile] |  |  |  |  |  |  |  |  |  |  |  | 
 | 10 to 50 |  |  | 0.1 to 1 | N#Cc1c(N2CCNCC2)ccc2c(=O)c3c(n(Cc4ccc(F)cc4)c12)-c1cccn1C3=O [Compound 486a, 4-(4-Fluorobenzyl)-9,10-dioxo-6-(piperazin-1-yl)-4,10-dihydro-9H-pyrrolizino[1,2-b]quinoline-5-carbonitrile] |  |  |  |  |  |  |  |  |  |  |  | 
 | 1 to 10 |  |  | 1 to 10 | O=C1c2c(nc3ccccc3c2OCc2ccc(-c3ccccc3)cc2)-c2cccn21 [Compound 674b] |  |  |  |  |  |  |  |  |  |  |  | 
 | 0.1 to 1 |  | 0.05 to 5 |  | N#Cc1ccc2c(=O)c3c(n(Cc4ccccc4F)c2c1)-c1cccn1C3=O [Compound 516a, 4-(2-Fluorobenzyl)-9,10-dioxo-4,10-dihydro-9H-pyrrolizino[1,2-b]quinoline-6-carbonitrile] |  |  |  |  |  |  | 0.05 to 5 | < 0.05 | 0.05 to 5 | 0.05 to 5 | 0.05 to 5 | 0.05 to 5
 | 1 to 10 |  | 0.05 to 5 |  | O=C1c2c(n(-c3ccc(Br)cc3)c3ccccc3c2=O)-c2cccn21 [Compound 64a, 4-(4-Bromophenyl)-9H-pyrrolizino[1,2-b]quinoline-9,10(4H)-dione] |  |  |  |  |  |  | 0.05 to 5 | 0.05 to 5 | 0.05 to 5 | 0.05 to 5 | 0.05 to 5 | 0.05 to 5
 | 1 to 10 |  | 0.05 to 5 |  | O=C1c2c(nc3ccc(F)cc3c2OCc2ccc(C(F)(F)F)cc2)-c2cccn21 [Compound 620b, 7-Fluoro-9-((4-(trifluoromethyl)benzyl)oxy)-10H-pyrrolizino[1,2-b]quinolin-10-one] |  |  |  |  |  |  | 5 to 20 | 0.05 to 5 | 0.05 to 5 | 0.05 to 5 | 0.05 to 5 | 0.05 to 5

SMILES | IC50 ([1]; Mus musculus, RAW264.7, 24 h) [µM] | IC50 [3] [µM] | IC50 ([6]; HT-1080 cells, 48 h, CCK-8) [mM] | IC50 [6, 15] [mM] | IC50 ([1]; 24 hours) [µM] | IC50 [2, 10] [mM] | IC50 ([4]; 48 h, CCK-8) [mM] | IC50 ([5]; HFL1 cells, 48 h, CCK-8) [mM] | IC50 [7, 11] [mM] | IC50 ([8]; LX-2, 48 h, LX-2 cells, CCK-8) [mM] | IC50 ([9]; RAT-iCell-C002 cells, CCK-8) [mM] | IC50 [2, 12] [mM] | IC50 [4, 13] [mM] | IC50 [5, 14] [mM] | IC50 [7, 16] [mM] | IC50 [8, 17] [mM] | IC50 [9, 18] [mM]
O=C1c2c(nc3cc(N4CCNCC4)ccc3c2O)-c2cccn21 [Compound 319b, 9-Hydroxy-6-(piperazin-1-yl)-10H-pyrrolizino[1,2-b]quinolin-10-one] | 1 to 10 | 1 to 10 |  | 0.05 to 5 |  |  |  |  |  |  |  | < 0.05 | 0.05 to 5 | 0.05 to 5 | 0.05 to 5 | 0.05 to 5 | 0.05 to 5
